Biological target: N-terminal truncated LSD1 (171–852 aa) (Homo sapiens, UniProt O60341)
Assay: LSD1-folate binding by back-scattering interferometry
Settings: N-terminal truncated LSD1 vs full-size LSD1

`Nc1nc2c(c(=O)[nH]1)NC(CNc1ccc(C(=O)N[C@@H](CCC(=O)N[C@@H](CCC(=O)N[C@@H](CCC(=O)N[C@@H](CCC(=O)N[C@@H](CCC(=O)O)C(=O)O)C(=O)O)C(=O)O)C(=O)O)C(=O)O)cc1)CN2` (mixture of isomers) [(6R,S)-THF-Glu5, Tetrahydrofolate pentaglutamate] was tested, and the “Affinity of truncated LSD1 compared with full-size protein” value was “same affinity as the full-size protein”.

Reference: paper PMC3111596 (Biochemistry, 2011)
